The source of these data is US20260091050A1, “ADVANTAGEOUS ANTI-HCV COMBINATION THERAPY” (Atea Pharmaceuticals, Inc., priority 2021, published 2026).

A short description of data set [1]: Single ascending dose study of Compound 1-A in healthy volunteers (Part A). Format: in vivo, human. As to the method: Compound 1-A was tested in a single ascending dose (SAD) study to measure its safety, tolerability, and pharmacokinetic in healthy subjects (Part A). Part A was a randomized, double-blind, placebo-controlled SAD study. Healthy subjects in Part A received a single dose of Compound 1-A or placebo in the fasting state. Subjects were confined to the clinic from Day −1 to Day 6.
Dosing in each cohort was staggered such that 2 subjects (1 active:1 placebo) were evaluated for 48 hours after dosing before the remainder of the cohort was dosed. Each cohort received Compound 1-A in ascending order. Dosing of sequential cohorts occurred based on review of available safety data (through Day 5) and plasma pharmacokinetic data (through 24 h) of the prior cohort.
As pharmacokinetic and safety data emerged from prior cohorts, doses evaluated in Cohorts 3a-4a were adjusted by increments no more than 100 mg.
Healthy volunteers in the Part A portion of the study were male and female subjects between the ages of 18 and 65. Active and placebo recipients were pooled within each Part A cohort to preserve the study blind.

For a further data set, the system named is GT1, GT2, or GT3 HCV. Nature of the data set: 600 mg QD for 7 days in Child-Pugh A cirrhotic patients with GT1, GT2 or GT3 HCV (Part E). In kind it is in vivo, human. Conditions: for Mean Max Reduction / Mean Reduction After 24 hours / HCV RNA < LOQ (15 IU/mL): 600 mg of Compound 1-A; for HCV RNA < LOQ (15 IU/mL): subjects/total. As to the method: Doses were administered as the Compound 1-A salt base. The free base Compound 1 equivalent is often given in parenthesis. […]
HCV-infected patients were treatment-naïve with HCV RNA ≥5 log 10 IU/mL. HCV RNA was quantified using COBAS® AmpliPrep TaqMAN® v2.0 with LLQ of 15 IU/mL. Plasma drug levels were measured using LC-MS/MS. […] Mean ages of enrolled subjects were 44, 39, and 56 years in the non-cirrhotic GT1b 600 mg dose cohort, non-cirrhotic GT3 cohort, and the cirrhotic cohort, respectively.

Data set [2] can be described thus: Solubility in biorelevant test medias (water, SGF, FaSSIF, FeSSIF). Conditions: for Appearance: solubility test; for Descriptive term: solubility.

Several values for one entry are separate records, joined by “and”; a condition that tells them apart may be missing. Identical values can stand only once.

As for `CNc1nc(N)nc2c1ncn2[C@@H]1O[C@H](CO[P@@](=O)(N[C@@H](C)C(=O)OC(C)C)Oc2ccccc2)[C@@H](O)[C@@]1(C)F` [Compound 1-A, isopropyl ((S)-(((2R,3R,4R,5R)-5-(2-amino-6-(methylamino)-9H-purin-9-yl)-4-fluoro-3-hydroxy-4-methyltetrahydrofuran-2-yl)methoxy) (phenoxy)phosphoryl)-L-alaninate hemisulfate], the “intensity of adverse effects” value in data set [1] is “mild to moderate”. In addition, the serious adverse events entry in data set [1] (healthy subjects, single dose) is given as “No serious adverse events”. Besides, the “mean maximum HCV RNA reduction” value in the data set with GT1, GT2, or GT3 HCV (600 mg QD for 7 days, CPA cirrhotic) is 4.4 log10 IU/mL and 4.6 log10 IU/mL. The “Mean Max Reduction” value was 4.2 log10 IU/mL in the data set on GT1, GT2, or GT3 HCV (GT1, Child-Pugh A (n = 3)) and 4.8 log10 IU/mL in the data set with GT1, GT2, or GT3 HCV (GT3, Child-Pugh A (n = 1)). The “Mean Reduction After 24 hours” value in the data set with GT1, GT2, or GT3 HCV (GT1, Child-Pugh A (n = 3)) came to 2.4 log10 IU/mL; in the data set on GT1, GT2, or GT3 HCV (GT3, Child-Pugh A (n = 1)), 2.2 log10 IU/mL. Also, the “HCV RNA < LOQ (15 IU/mL)” value is given as 1/3 with GT1, GT2, or GT3 HCV (GT1, Child-Pugh A (n = 3)) and 0/1 in the data set with GT1, GT2, or GT3 HCV (GT3, Child-Pugh A (n = 1)). For the same compound, the “HCV RNA reduction” value is given as 2.4 log10 with GT1, GT2, or GT3 HCV (cirrhotic GT1, within the first 24 hours) and 2.2 log10 in the data set on GT1, GT2, or GT3 HCV (cirrhotic GT3, within the first 24 hours). The Appearance entry in data set [2] (FaSSIF), in data set [2] (FeSSIF), in data set [2] (SGF) and in data set [2] (Water) was “Turbid” throughout. In addition, the Descriptive term entry in data set [2] (FaSSIF) was “Slightly”; in data set [2] (FeSSIF), “Slightly”; in data set [2] (SGF), “Soluble”; in data set [2] (Water), “Soluble”.
